# Molecular target: T1, Kv7.2/7.3 (Homo sapiens, UniProt O43525+O43526)
# T1 construct: Kv7.2 tetracycline-induced, Kv7.3 constitutive
# Experiment: Kv7.2/7.3 Activation Assay (Thallium Flux Assay)
# Type: cell-based
# Conditions: hKV7.2/7.3 cell line; test compound at single concentration of 10 μM; fluorescence at 90 sec normalized to positive control (retigabine, 30 μM)
# Procedure, shortened: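 Single-point activity at 10 μM (0.1% DMSO, HEPES-buffered saline, pH 7.4) was scored from fluorescence at 90 s relative to 30 μM retigabine. Categories were none <0.15, moderate 0.15-0.7 and high >0.7. Thallium influx after stimulus addition was followed with FluxOR II Green dye in hKv7.2/7.3 cells, Kv7.2 expressed under overnight tetracycline (10 ng/mL) induction.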
row,Kv7.2/7.3 Activity,SMILES
1,− (“−” No Activity < 0.15),"Cn1nc(NC(=O)[C@@H]2C[C@H]2F)c(C2CCC2)c1-c1ccc(F)cc1 [Compound 219, (1S,2R)-N-(4-cyclobutyl-5-(4-fluorophenyl)-1-methyl-1H-pyrazol-3-yl)-2-fluorocyclopropane-1-carboxamide]"
2,++ (“++” High Activity ≥ 0.7),"Cn1nc(NC(=O)CC2CC(F)(F)C2)c(C2CCC2)c1-c1ccc(Cl)c(F)c1 [Compound 250, N-(5-(4-chloro-3-fluorophenyl)-4-cyclobutyl-1-methyl-1H-pyrazol-3-yl)-2-(3,3-difluorocyclobutyl)acetamide]"
3,++ (“++” High Activity ≥ 0.7),"Cn1nc(NC(=O)C2(C(F)(F)F)CC2)c(C2CCC2)c1C1CC(C)(C)C1 [Compound 151, N-(4-cyclobutyl-5-(3,3-dimethylcyclobutyl)-1-methyl-1H-pyrazol-3-yl)-1-(trifluoromethyl)cyclopropane-1-carboxamide]"
4,++ (“++” High Activity ≥ 0.7),"Cn1nc(NC(=O)CC2CC(F)(F)C2)c(C2CCC2)c1-c1ccc(Cl)s1 [Compound 218, N-(5-(5-chlorothiophen-2-yl)-4-cyclobutyl-1-methyl-1H-pyrazol-3-yl)-2-(3,3-difluorocyclobutyl)acetamide]"
5,++ (“++” High Activity ≥ 0.7),"Cn1nc(NC(=O)C2CSC2)c(C2CCC2)c1-c1cc(F)c(F)c(F)c1 [Compound 263, N-(4-cyclobutyl-1-methyl-5-(3,4,5-trifluorophenyl)-1H-pyrazol-3-yl)thietane-3-carboxamide]"
6,− (“−” No Activity < 0.15),"Cn1nc(NC(=O)C2CC(F)(F)C2)c(C2CCC2)c1-c1ccc(C(C)(C)O)s1 [Compound 247, N-(4-cyclobutyl-5-(5-(2-hydroxypropan-2-yl)thiophen-2-yl)-1-methyl-1H-pyrazol-3-yl)-3,3-difluorocyclobutane-1-carboxamide]"
7,++ (“++” High Activity ≥ 0.7),"CN(CC(F)(F)F)C(=O)Nc1nn(C)c(C2CC(F)(F)C2)c1C1CCC1 [Compound 291, 3-(4-cyclobutyl-5-(3,3-difluorocyclobutyl)-1-methyl-1H-pyrazol-3-yl)-1-methyl-1-(2,2,2-trifluoroethyl)urea]"
8,+ (“+” Moderate Activity 0.15-0.7),"Cc1c(C2CCC2)c(NC(=O)CC2CC(F)(F)C2)nn1Cc1ccc(F)cc1 [Compound 93, N-(4-cyclobutyl-1-(4-fluorobenzyl)-5-methyl-1H-pyrazol-3-yl)-2-(3,3-difluorocyclobutyl)acetamide]"
9,++ (“++” High Activity ≥ 0.7),"Cn1nc(NC(=O)C[C@@H]2CC(F)(F)C2(F)F)c(C2CCC2)c1-c1ccc(F)cc1 [Compound 14, (R)-N-(4-cyclobutyl-5-(4-fluorophenyl)-1-methyl-1H-pyrazol-3-yl)-2-(2,2,3,3-tetrafluorocyclobutyl)acetamide]"
10,++ (“++” High Activity ≥ 0.7),"Cn1nc(NC(=O)OC2CC(F)(F)C2)c(C2CCC2)c1-c1ccc(Cl)s1 [Compound 226, 3,3-difluorocyclobutyl (5-(5-chlorothiophen-2-yl)-4-cyclobutyl-1-methyl-1H-pyrazol-3-yl)carbamate]"
11,++ (“++” High Activity ≥ 0.7),"Cn1nc(NC(=O)C[C@H]2CC(F)(F)C2(F)F)c(C2CCC2)c1-c1ccc(F)cc1 [Compound 21, (S)-N-(4-cyclobutyl-5-(4-fluorophenyl)-1-methyl-1H-pyrazol-3-yl)-2-(2,2,3,3-tetrafluorocyclobutyl)acetamide]"
12,++ (“++” High Activity ≥ 0.7),"Cn1nc(NC(=O)C2CC(C)(C)C2)c(C2CCC2)c1-c1ccc(OC(F)(F)F)cc1 [Compound 185, N-(4-cyclobutyl-1-methyl-5-(4-(trifluoromethoxy)phenyl)-1H-pyrazol-3-yl)-3,3-dimethylcyclobutane-1-carboxamide]"
13,+ (“+” Moderate Activity 0.15-0.7),"Cn1nc(NC(=O)C2(C(F)(F)F)CC2)c(C2CCC2)c1-c1ccc(OC(F)(F)F)cc1 [Compound 150, N-(4-cyclobutyl-1-methyl-5-(4-(trifluoromethoxy)phenyl)-1H-pyrazol-3-yl)-1-(trifluoromethyl)cyclopropane-1-carboxamide]"
14,++ (“++” High Activity ≥ 0.7),"Cn1nc(NC(=O)[C@@H]2CC2(F)F)c(C2CCC2)c1-c1ccc(Cl)s1 [Compound 155, (S)-N-(5-(5-chlorothiophen-2-yl)-4-cyclobutyl-1-methyl-1H-pyrazol-3-yl)-2,2-difluorocyclopropane-1-carboxamide]"
15,+ (“+” Moderate Activity 0.15-0.7),"Cn1nc(NC(=O)CC2(C(F)(F)F)CC2)c(C2CC(F)(F)C2)c1-c1ccc(OC(F)(F)F)cc1 [Compound 42, N-(4-(3,3-difluorocyclobutyl)-1-methyl-5-(4-(trifluoromethoxy)phenyl)-1H-pyrazol-3-yl)-2-(1-(trifluoromethyl)cyclopropyl)acetamide]"
16,++ (“++” High Activity ≥ 0.7),"Cn1nc(NC(=O)CC2CC(F)(F)C2)c(C2CCC2)c1-c1cc(F)cc(F)c1 [Compound 258, N-(4-cyclobutyl-5-(3,5-difluorophenyl)-1-methyl-1H-pyrazol-3-yl)-2-(3,3-difluorocyclobutyl)acetamide]"
17,− (“−” No Activity < 0.15),"Cn1nc(NC(=O)C2CS(=O)(=O)C2)c(C2CCC2)c1-c1ccc(F)cc1 [Compound 228, N-(4-cyclobutyl-5-(4-fluorophenyl)-1-methyl-1H-pyrazol-3-yl)thietane-3-carboxamide 1,1-dioxide]"
18,++ (“++” High Activity ≥ 0.7),"Cn1nc(NC(=O)[C@H]2C[C@H](C)C2)c(C2CCC2)c1-c1ccc(F)cc1 [Compound 123, (1R,3R)-N-(4-cyclobutyl-5-(4-fluorophenyl)-1-methyl-1H-pyrazol-3-yl)-3-methylcyclobutane-1-carboxamide]"
19,− (“−” No Activity < 0.15),"Cn1nc(NC(=O)NC2CC3(C2)CC(F)(F)C3)c(C2CCC2)c1-c1ccc(F)cc1 [Compound 244, 1-(4-cyclobutyl-5-(4-fluorophenyl)-1-methyl-1H-pyrazol-3-yl)-3-(6,6-difluorospiro[3.3]heptan-2-yl)urea]"
20,+ (“+” Moderate Activity 0.15-0.7),"CCn1nc(NC(=O)Cc2ccccc2C(F)(F)F)c(C2CC2)c1C [Compound 8, N-(4-cyclopropyl-1-ethyl-5-methyl-1H-pyrazol-3-yl)-2-(2-(trifluoromethyl)phenyl)acetamide]"
21,+ (“+” Moderate Activity 0.15-0.7),"Cn1nc(NC(=O)C[C@H]2CC(F)(F)C2(F)F)c(C2CCC2)c1-c1cnc(C(F)(F)F)s1 [Compound 60, (S)-N-(4-cyclobutyl-1-methyl-5-(2-(trifluoromethyl)thiazol-5-yl)-1H-pyrazol-3-yl)-2-(2,2,3,3-tetrafluorocyclobutyl)acetamide]"
22,++ (“++” High Activity ≥ 0.7),"Cn1nc(NC(=O)C[C@H]2CC(F)(F)C2(F)F)c(C2CCC2)c1Cc1ccccc1 [Compound 16, (S)-N-(5-benzyl-4-cyclobutyl-1-methyl-1H-pyrazol-3-yl)-2-(2,2,3,3-tetrafluorocyclobutyl)acetamide]"

row,SMILES,Kv7.2/7.3 Activity
1,"Cn1nc(NC(=O)C2C(C)(C)C2(C)C)c(C2CCC2)c1-c1ccc(OC(F)(F)F)cc1 [Compound 51, N-(4-cyclobutyl-1-methyl-5-(4-(trifluoromethoxy)phenyl)-1H-pyrazol-3-yl)-2,2,3,3-tetramethylcyclopropane-1-carboxamide]",+ (“+” Moderate Activity 0.15-0.7)
